For orientation: IC50 means the concentration needed to halve the response being measured. A word on the Ki: it is a dissociation constant, usually derived from enzyme kinetics or from competition with a known ligand.

Counter-ions that a name gives are not always drawn.

The subject of assay [1] is platelet aggregation induced by the TXA2 agonist, U46619. Kind of assay: Platelet aggregation in dogs (PRP, adrenalin + U46619-induced). Type of assay: cell-based. Particulars: Canis lupus familiaris, 0.05 h, dog PRP, 37° C., 3 min, adrenalin (10 μM) then U46619, read-out: IC50 Dog (inhibition of aggregation to U46619 + adrenalin). As to the method:
After anesthetizing the animal with pentobarbital sodium (30 mg/kg i.v.), arterial blood is withdrawn onto sodium citrate (0.109M) (1 vol. of citrate per 9 vol. of blood). The platelet-rich plasma (PRP) is obtained after centrifugation (20° C.) at 200 g for 10 minutes. The number of platelets in the PRP is, on average, 300,000 PL/mm^3 The PRP is stored at the temperature of the room until the time of the test, and is used within 4 hours following withdrawal.
The PRP is incubated at 37° C. in the presence of the antagonist to be tested for 3 minutes. Aggregation is subsequently obtained by the addition of adrenalin (10μM) followed by that of U46619 […] 30 seconds later.

Assay [2] has the same test system. Description: Platelet aggregation in rabbits (PRP, U46619-induced). Type of assay: cell-based. Particulars: Oryctolagus cuniculus, rabbit PRP, 37° C., antagonist 3 min before U46619, read-out: IC50 Rabbit (inhibition of U46619-induced platelet aggregation). As to the method: Rabbits (2-3 kg) are anesthetized with pentobarbital sodium (30 mg/kg i.v.). After cannulation of the left carotid artery, blood is withdrawn onto sodium citrate (0.109M) (1 vol. of citrate per 9 vol. of blood).
Platelet-rich plasma (PRP) is obtained by centrifugation (20° C.) at 250 g for 20 minutes, and platelet-poor plasma (PPP) by centrifugation at 1000 g (10 min). The number of platelets (PL) in the PRP is adjusted to between 300-350,000 PL/mm^3 by dilution with autologous PPP. The PRP is stored at the temperature of the room until the time of the test, and is used within 4 hours following withdrawal.
Platelet aggregation is carried out at 37° C. in siliconed glass tubes using an aggregometer. The PRP and PLs are stirred at 1000 rpm (revolutions per minute). In order to study the activity of thromboxane antagonists, the PRP is incubated for 1 min at 37° C., and the antagonist is then added for a period of 3 min before addition of the agonist U46619 […]. The final volume in the cell is then […]. The intensity of platelet aggregation is established by taking the maximum amplitude of the aggregation plots and is expressed as a percentage light transmission (% T).

In a further assay the target is T1, platelet TXA2 receptors (Homo sapiens, UniProt P21731).
T1 construct: platelet membranes, prepared from washed, ground and centrifuged human platelets; from tissue; host or cells: human platelets (membranes)
T1 sequence (P21731 1-343): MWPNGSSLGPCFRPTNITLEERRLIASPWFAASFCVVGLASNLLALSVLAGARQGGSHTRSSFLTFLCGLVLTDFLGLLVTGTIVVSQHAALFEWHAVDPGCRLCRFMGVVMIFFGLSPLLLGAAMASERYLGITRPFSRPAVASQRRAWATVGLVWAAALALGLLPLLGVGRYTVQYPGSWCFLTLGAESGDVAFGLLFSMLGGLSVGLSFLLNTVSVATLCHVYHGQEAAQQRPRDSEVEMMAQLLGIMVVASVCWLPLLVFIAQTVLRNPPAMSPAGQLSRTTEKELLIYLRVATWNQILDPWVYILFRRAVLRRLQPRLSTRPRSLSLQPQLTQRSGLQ
Kind of assay: Specific binding to human platelet membranes (3H-SQ29548 competition). Particulars: 25° C., Cheng and Prusoff. As to the method:
The experiments take place at a temperature of 25° C. in a final reaction volume of 0.2 ml in the presence of 0.1 mg of platelet membranes, prepared from washed, ground and centrifuged human platelets. Determination of the activity of the products of the invention is made by competition experiments, in which increasing concentrations of product are placed in the presence of a fixed concentration of ^3 H-SQ29548. This protocol makes it possible to produce inhibition curves for each antagonist studied. The 50% inhibitory concentration is determined by non-linear regression by the "Simplex" method described by M. S. Caceci et al., (Byte, 340-362, May 1984) calculated according to the mass action law model of C. Michaelis et al. (Biochem. Zeitschrift, 49, 333-369, 1913). The inhibition constant is then determined using the formula of Cheng and Prusoff (Biochem. Pharmacol., 22, 3099-3108, 1973).

Assay [3] concerns platelet aggregation of U46619. Kind of assay: ex vivo platelet aggregation in dogs after oral administration. On the set-up: species or system dog. As to the method: The experiments are carried out on non-anesthetized dogs. After applying a tourniquet and introduction of a needle into the cephalic vein, blood is withdrawn onto sodium citrate (0.109M). The blood is stored at the temperature of the room. Platelet aggregation is measured in the total blood using an impedance probe in an aggregometer. The pro-aggregating activity of the thromboxane receptor agonist, U46619, is tested in the presence of adrenalin (10 μM). The products of the invention and the reference substances are administered to dogs orally after performing the control test. Blood samples are subsequently withdrawn at determined times: t=30 min, 1 h, 2 h, 4 h, 6 h, 24 h, 48 h, etc. until the aggregation activity of U46619 has fully returned.

Assay [4] concerns guinea pig carotid artery. Kind of assay: Experimental thrombosis in guinea pig carotid artery. Type of assay: in vivo. To be noted: i.v. injection of 100 μg/kg, n=3; 10±2 CFV/20 min before the treatment; control 9±1 then 8±1. As to the method:
The technique recently described by Roux et al., Thrombosis and Haemostasis, 71, 252-256 (1994), was used in order to measure the anti-thrombotic effect of our products. Male guinea pigs (390 to 420 g) were anesthetized with ketamine hydrochloride (90 mg/kg i.m.) and xylazine (12 mg/kg i.m.). A catheter is introduced into the left jugular vein in order to allow the i.v. injection of the substances. The right carotid artery is prepared and a Doppler probe (20 MHz) is installed, which allows the blood flow to be measured. At a distance of two mm from the Doppler probe a subendothelial lesion is produced using a clamp ("pinching"). After introduction of this lesion, the blood flow decreases and stops altogether (between 1 and 2 min). When the flow is at zero, the artery is touched, which removes the occlusive thrombus and restores the flow (see Roux et al., 1994). This thrombotic process is repeated and the cyclic decreases in the flow (CFV=cyclic flow variations) are expressed as a number per 20 min. In control carotid arteries (n=4), the CFVs are counted over 2 periods of 20 min: during the first period, 9±1 CFV/20 min are counted; during the second period, 8±1 CFV/20 min are counted. In a group of animals (n=3) treated with the compound of Example 1, 10±2 CFV/20 min are counted before the treatment and 0.3±0.3 CFV/20 min are counted alter an i.v. injection of 100 μg/kg.

Assay [5] relates to platelet aggregation induced by the TXA2 agonist, U46619. Description: Platelet aggregation in man (PRP, U46619-induced). It counts as cell-based. Particulars: human PRP, procedure of Example 19, U46619 0.3 mM, read-out: IC50 (inhibition of U46619-induced platelet aggregation). As to the method:
Dog platelets respond weakly to U46619 alone. […] The PRP is incubated at 37° C. in the presence of the antagonist to be tested for 3 minutes. Aggregation is subsequently obtained by the addition of adrenalin (10μM) followed by that of U46619 […] 30 seconds later.
Venous blood is obtained from human volunteers who have taken no aspirin for at least 14 days preceding the experiment. Blood is withdrawn onto sodium citrate (0.109M) (1 vol. of citrate per 9 vol. of blood). Platelet-rich plasma (PRP) is obtained after centrifugation (20° C.) at 200 g for 10 minutes. The number of platelets is, on average, 250,000 PL/mm^3. The PRP is stored at the temperature of the room until the time of the test, and is used within 2 hours following withdrawal. The antagonists are tested according to the procedure described in Example 19, using U46619 at the concentration of […].

As for `Cc1ccc2c(c1CCC(=O)O)CCC(NS(=O)(=O)c1cccc3ccccc13)C2` (stereo not shown) [Example 8, 3-[6-(1 -Naphthylsulfonylamino)-2-methyl-5,6,7,8-tetrahydronaphth-1-yl]propionic acid], in assay [1], the IC50 stood at 0.15 µM.

As to `Cc1ccc(S(=O)(=O)NC2CCc3c(CCC(=O)O)cccc3C2)cc1` (stereo not shown) [Example 9, 3-[6-(4-Tolylsulfonylamino)-5,6,7,8-tetrahydronaphth-1-yl]propionic acid], the values for the IC50 in assay [1] and in assay [2] were 0.015 µM and 0.32 µM, respectively.

With `O=C(O)CCc1cccc2c1OCC(NS(=O)(=O)c1ccc(Cl)cc1)C2` (stereo not shown) [Example 16, 3-[3-(4-Chlorophenylsulfonyl)amino-8-chromanyl]propionic acid], the IC50 in assay [1] stood at 0.02 µM; in assay [2], 0.25 µM.

As to `O=C(O)CCc1cccc2c1OCC(NS(=O)(=O)c1ccc(F)cc1)C2` (stereo not shown) [Example 17, 3-[3-(4-Fluorophenylsulfonyl)aminochroman-8-yl]propionic acid], the IC50 in assay [2] worked out at 1.1 µM.

Turning to `Cc1cc(CCC(=O)O)c2c(c1)CC(NS(=O)(=O)c1ccc(F)cc1)CC2` (stereo not shown) [Example 11, 3-{6-[(4-Fluorophenylsulfonyl)amino]-3-methyl-5,6,7,8-tetrahydronaphth-1-yl}propionic acid], the IC50 in assay [1] worked out at 0.056 µM; in assay [2] it was 0.67 µM.

Consider `Cc1ccc2c(c1CCC(=O)O)CCC(NS(=O)(=O)c1ccc(Cl)cc1)C2` (stereo not shown) [Example 1, 3-{6-[(4-Chlorophenylsulfonyl)amino]-2-methyl-5,6,7,8-tetrahydronaphth-1-yl}propionic acid, sodium salt], for which, at platelet TXA2 receptors, the Ki is 0.00096 µM. Also, the IC50 in assay [1] was 0.028 µM; in assay [2], 0.24 µM; in assay [5], 0.084 µM. Besides, the “duration of complete inhibition of U46619 platelet aggregation ex vivo” value in assay [3] (10 μg/kg per os) is reported as “at least 3 days”; in assay [3] (10 to 3000 μg/kg, orally) it was “at least 3 days”. Moreover, the “duration of inhibition of U46619 platelet aggregation ex vivo” value in assay [3] (100 μg/kg per os) is given as “at least 8 days”. Further, in assay [3] (3 mg/kg per os), the “inhibition of U46619 platelet aggregation ex vivo (words, compared with 100 μg/kg per os, at least 8 days)” value is “same result”. The “duration of complete inhibition of U46619 platelet aggregation ex vivo, highest dose” value in assay [3] (highest dose of 10 to 3000 μg/kg, orally) is “up to 11 days”. The “cyclic flow variations (CFV) after treatment” value in assay [4] stood at 0.3±0.3 CFV/20 min.

As to `Cc1ccc2c(c1CCC(=O)O)CCC(NS(=O)(=O)c1ccc(F)cc1)C2` (stereo not shown) [Example 3, 3-{6-[(4-Fluorophenylsulfonyl)amino]-2-methyl-5,6,7,8-tetrahydronaphth-1-yl}propionic acid, sodium salt], the IC50 was determined as 0.01 µM in assay [1] and 0.27 µM in assay [2].

On to `O=C(O)CCn1c2c(c3ccccc31)C[C@H](NS(=O)(=O)c1ccc(F)cc1)CC2` [BAY U3405, reference compound], for which the Ki at platelet TXA2 receptors turned out to be 0.00361 µM. The IC50 in assay [1] was 0.11 µM; in assay [2] it was 1.1 µM; in assay [5], 0.18 µM. Also, the “duration of total inhibition of aggregation ex vivo” value in assay [3] (100 μg/kg per os) amounted to 6 h.

For the origin of these results see patent publication US5472979A, “1,2,3,4-tetrahydronaphthalene compounds” (Adir et Compagnie, priority 1993, dated 1995).
